In ChEMBL document CHEMBL6114988, “Design, synthesis and biological evaluation of dual CDK9/PARP inhibitors for the treatment of cancer” (Eur J Med Chem, 2025):
Blank lines part the entries; values can stand above or below the compound they belong to.

Legend:
HeLa = assay: cells; settings: Homo sapiens, 48 h
Description: Antiproliferative activity against human HeLa cells assessed as inhibition of cell proliferation incubated for 48 hrs by CCK-8 assay

[1] = Metabolic stability in artificial gastric fluid assessed as parent compound remaining at 1 mg/ml incubated for 8 hrs by HPLC analysis; format: ADME; settings: read-out: Stability
MDA-MB-231 [2] = assay: Induction of cell cycle arrest in human MDA-MB-231 cells assessed as accumulation of cells at S phase at 1 uM incubated for 24 hrs by PI staining based flow cytometric analysis (reference value: 29.2%); format: functional
MCF7 = assay: cells; settings: Homo sapiens, MCF7, 48 h
Description: Antiproliferative activity against human MCF7 cells assessed as inhibition of cell proliferation incubated for 48 hrs by CCK-8 assay

[3] = Metabolic stability in plasma assessed as parent compound remaining incubated for 3 hrs by HPLC analysis; format: ADME, cell-free; settings: read-out: Stability
[4] = Metabolic stability in rat liver microsomes assessed as half life at 1 mg/ml incubated for 60 min in presence of NADPH by HPLC analysis; format: ADME, Microsome
MDA-MB-231 [5] = assay: Induction of apoptosis in human MDA-MB-231 cells assessed as viable cell at 1 uM incubated for 24 hrs by Annexin V-FITC/PI staining based analysis (reference value: 96.3 %); format: functional
MDA-MB-231 [6] = assay: Induction of apoptosis in human MDA-MB-231 cells assessed as late apoptotic cell at 1 uM incubated for 24 hrs by Annexin V-FITC/PI staining based analysis (reference value: 2.61 %); format: functional
HCT-116 = assay: cells; settings: Homo sapiens, HCT-116, 48 h
Description: Antiproliferative activity against human HCT-116 cells assessed as inhibition of cell proliferation incubated for 48 hrs by CCK-8 assay

MDA-MB-231 [7] = assay: Induction of cell cycle arrest in human MDA-MB-231 cells assessed as accumulation of cells at G2/M phase at 1 uM incubated for 24 hrs by PI staining based flow cytometric analysis (reference value: 11.3%); format: functional
MDA-MB-231 [8] = assay: Induction of apoptosis in human MDA-MB-231 cells assessed as necrotic cell at 1 uM incubated for 24 hrs by Annexin V-FITC/PI staining based analysis (reference value: 0.10 %); format: functional
MOLM-13 = assay: Antiproliferative activity against human MOLM-13 cells assessed as inhibition of cell proliferation incubated for 48 hrs by CCK-8 assay; format: functional, cell-based; settings: MOLM-13, 48 h
MDA-MB-231 [9] = assay: cells; settings: Homo sapiens, MDA-MB-231, 48 h
Description: Antiproliferative activity against human MDA-MB-231 cells assessed as inhibition of cell proliferation incubated for 48 hrs by CCK-8 assay

MDA-MB-231 [10] = assay: Induction of apoptosis in human MDA-MB-231 cells assessed as early apoptotic cell at 1 uM incubated for 24 hrs by Annexin V-FITC/PI staining based analysis (reference value: 0.96 %); format: functional
[11] = Metabolic stability in artificial intestinal fluid assessed as parent compound remaining at 1 mg/ml incubated for 8 hrs by HPLC analysis; format: ADME; settings: read-out: Stability
MDA-MB-231 [12] = assay: Induction of cell cycle arrest in human MDA-MB-231 cells assessed as accumulation of cells at G1 phase at 1 uM incubated for 24 hrs by PI staining based flow cytometric analysis (reference value: 58.1%); format: functional
MV4-11 = assay: Antiproliferative activity against human MV4-11 cells assessed as inhibition of cell proliferation incubated for 48 hrs by CCK-8 assay; format: functional, cell-based; settings: MV4-11, 48 h
[13] = target: Poly [ADP-ribose] polymerase 1 (Homo sapiens, UniProt P09874); assay: Inhibition of PARP1 (unknown origin) incubated for 1 hr by ELISA
Chain of Poly [ADP-ribose] polymerase 1 (P09874 whole entry): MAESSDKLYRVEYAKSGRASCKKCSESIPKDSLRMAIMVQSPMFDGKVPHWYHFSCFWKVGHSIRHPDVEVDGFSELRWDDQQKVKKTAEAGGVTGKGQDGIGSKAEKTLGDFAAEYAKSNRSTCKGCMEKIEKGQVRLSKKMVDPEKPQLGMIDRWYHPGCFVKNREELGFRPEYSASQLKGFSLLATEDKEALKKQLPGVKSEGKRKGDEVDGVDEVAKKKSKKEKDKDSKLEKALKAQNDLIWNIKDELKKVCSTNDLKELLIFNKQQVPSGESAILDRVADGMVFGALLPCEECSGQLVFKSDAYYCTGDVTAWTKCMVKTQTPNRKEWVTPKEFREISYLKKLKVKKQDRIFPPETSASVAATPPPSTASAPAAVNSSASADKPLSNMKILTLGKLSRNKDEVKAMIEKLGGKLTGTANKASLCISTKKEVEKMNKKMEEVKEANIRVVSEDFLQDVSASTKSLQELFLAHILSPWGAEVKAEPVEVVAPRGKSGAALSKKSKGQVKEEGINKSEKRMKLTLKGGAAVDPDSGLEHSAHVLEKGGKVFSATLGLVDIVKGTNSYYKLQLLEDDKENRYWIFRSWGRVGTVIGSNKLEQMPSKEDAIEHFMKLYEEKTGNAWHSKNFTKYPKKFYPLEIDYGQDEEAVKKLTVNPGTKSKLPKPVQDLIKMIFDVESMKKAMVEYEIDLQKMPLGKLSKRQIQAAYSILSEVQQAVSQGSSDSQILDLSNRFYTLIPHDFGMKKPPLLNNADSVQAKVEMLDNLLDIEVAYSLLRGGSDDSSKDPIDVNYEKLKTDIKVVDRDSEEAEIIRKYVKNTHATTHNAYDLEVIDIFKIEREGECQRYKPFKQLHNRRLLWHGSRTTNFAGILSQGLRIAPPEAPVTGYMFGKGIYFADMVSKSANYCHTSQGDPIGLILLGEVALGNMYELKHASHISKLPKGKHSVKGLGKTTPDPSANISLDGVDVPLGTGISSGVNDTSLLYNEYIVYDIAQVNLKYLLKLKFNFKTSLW

[14] = target: Cyclin-dependent kinase 9 (Homo sapiens, UniProt P50750)
Chain of Cyclin-dependent kinase 9 (P50750 whole entry): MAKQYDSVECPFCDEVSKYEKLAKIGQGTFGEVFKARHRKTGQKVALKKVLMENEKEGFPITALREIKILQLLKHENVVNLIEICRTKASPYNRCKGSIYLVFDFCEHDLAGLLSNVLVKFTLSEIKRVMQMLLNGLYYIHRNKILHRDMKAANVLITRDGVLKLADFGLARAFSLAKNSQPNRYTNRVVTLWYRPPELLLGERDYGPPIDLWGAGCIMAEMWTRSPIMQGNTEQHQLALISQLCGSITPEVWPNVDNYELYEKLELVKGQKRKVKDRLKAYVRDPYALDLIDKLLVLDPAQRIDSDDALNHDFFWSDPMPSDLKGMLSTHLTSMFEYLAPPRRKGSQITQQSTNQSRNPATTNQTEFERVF
Description: Inhibition of CDK9 (unknown origin) using lipid substrate incubated for 40 mins in presence of ATP by kinase-Glo plus luminescence assay

MDA-MB-231 [15] = assay: Induction of apoptosis in human MDA-MB-231 cells assessed as early apoptotic cell at 0.2 uM incubated for 24 hrs by Annexin V-FITC/PI staining based analysis (reference value: 0.96 %); format: functional
MDA-MB-231 [16] = assay: Induction of apoptosis in human MDA-MB-231 cells assessed as late apoptotic cell at 10 uM incubated for 24 hrs by Annexin V-FITC/PI staining based analysis (reference value: 2.61 %); format: functional
MDA-MB-231 [17] = assay: Induction of cell cycle arrest in human MDA-MB-231 cells assessed as accumulation of cells at G2/M phase at 0.2 uM incubated for 24 hrs by PI staining based flow cytometric analysis (reference value: 11.3%); format: functional
MDA-MB-231 [18] = assay: Induction of cell cycle arrest in human MDA-MB-231 cells assessed as accumulation of cells at G1 phase at 10 uM incubated for 24 hrs by PI staining based flow cytometric analysis (reference value: 58.1%); format: functional
MDA-MB-231 [19] = assay: Induction of apoptosis in human MDA-MB-231 cells assessed as necrotic cell at 0.2 uM incubated for 24 hrs by Annexin V-FITC/PI staining based analysis (reference value: 0.10 %); format: functional
MDA-MB-231 [20] = assay: Induction of apoptosis in human MDA-MB-231 cells assessed as late apoptotic cell at 0.2 uM incubated for 24 hrs by Annexin V-FITC/PI staining based analysis (reference value: 2.61 %); format: functional
MDA-MB-231 [21] = assay: Induction of apoptosis in human MDA-MB-231 cells assessed as early apoptotic cell at 10 uM incubated for 24 hrs by Annexin V-FITC/PI staining based analysis (reference value: 0.96 %); format: functional
MDA-MB-231 [22] = assay: Induction of cell cycle arrest in human MDA-MB-231 cells assessed as accumulation of cells at G2/M phase at 10 uM incubated for 24 hrs by PI staining based flow cytometric analysis (reference value: 11.3%); format: functional
MDA-MB-231 [23] = assay: Induction of apoptosis in human MDA-MB-231 cells assessed as necrotic cell at 10 uM incubated for 24 hrs by Annexin V-FITC/PI staining based analysis (reference value: 0.10 %); format: functional
MDA-MB-231 [24] = assay: Induction of cell cycle arrest in human MDA-MB-231 cells assessed as accumulation of cells at S phase at 0.2 uM incubated for 24 hrs by PI staining based flow cytometric analysis (reference value: 29.2%); format: functional
MDA-MB-231 [25] = assay: Induction of cell cycle arrest in human MDA-MB-231 cells assessed as accumulation of cells at S phase at 10 uM incubated for 24 hrs by PI staining based flow cytometric analysis (reference value: 29.2%); format: functional
MDA-MB-231 [26] = assay: Induction of apoptosis in human MDA-MB-231 cells assessed as viable cell at 0.2 uM incubated for 24 hrs by Annexin V-FITC/PI staining based analysis (reference value: 96.3 %); format: functional
MDA-MB-231 [27] = assay: Induction of apoptosis in human MDA-MB-231 cells assessed as viable cell at 10 uM incubated for 24 hrs by Annexin V-FITC/PI staining based analysis (reference value: 96.3 %); format: functional
MDA-MB-231 [28] = assay: Induction of cell cycle arrest in human MDA-MB-231 cells assessed as accumulation of cells at G1 phase at 0.2 uM incubated for 24 hrs by PI staining based flow cytometric analysis (reference value: 58.1%); format: functional
MDA-MB-231 [29] = assay: Induction of apoptosis in human MDA-MB-231 cells assessed as viable cell at 2 uM incubated for 24 hrs by Annexin V-FITC/PI staining based analysis (reference value: 96.3 %); format: functional
MDA-MB-231 [30] = assay: Induction of apoptosis in human MDA-MB-231 cells assessed as early apoptotic cell at 2 uM incubated for 24 hrs by Annexin V-FITC/PI staining based analysis (reference value: 0.96 %); format: functional
MDA-MB-231 [31] = assay: Induction of cell cycle arrest in human MDA-MB-231 cells assessed as accumulation of cells at S phase at 2 uM incubated for 24 hrs by PI staining based flow cytometric analysis (reference value: 29.2%); format: functional
MDA-MB-231 [32] = assay: Induction of apoptosis in human MDA-MB-231 cells assessed as necrotic cell at 2 uM incubated for 24 hrs by Annexin V-FITC/PI staining based analysis (reference value: 0.10 %); format: functional
MDA-MB-231 [33] = assay: Induction of cell cycle arrest in human MDA-MB-231 cells assessed as accumulation of cells at G1 phase at 2 uM incubated for 24 hrs by PI staining based flow cytometric analysis (reference value: 58.1%); format: functional
MDA-MB-231 [34] = assay: Induction of apoptosis in human MDA-MB-231 cells assessed as late apoptotic cell at 2 uM incubated for 24 hrs by Annexin V-FITC/PI staining based analysis (reference value: 2.61 %); format: functional
MDA-MB-231 [35] = assay: Induction of cell cycle arrest in human MDA-MB-231 cells assessed as accumulation of cells at G2/M phase at 2 uM incubated for 24 hrs by PI staining based flow cytometric analysis (reference value: 11.3%); format: functional

Structure (SMILES): COc1cc(F)ccc1-c1cc(Nc2cc(CS(C)(=N)=O)ccn2)ncc1F (centres undefined) [ENITOCICLIB]
- IC50 (HeLa): 0.2 µM
- remaining at 8 h, 1 mg/ml [1]: 101%
- Activity (MDA-MB-231 [2]): 29.1%
- IC50 (MCF7): 0.05 µM
- remaining at 3 h [3]: 96%
- half-life at 1 mg/ml [4]: 5.78 h
- Activity (MDA-MB-231 [5]): 82.1%
- Activity (MDA-MB-231 [6]): 7.66%
- IC50 (HCT-116): 0.18 µM
- Activity (MDA-MB-231 [7]): 16.5%
- Activity (MDA-MB-231 [8]): 3.8%
- IC50 (MOLM-13): 0.08 µM
- IC50 (MDA-MB-231 [9]): 0.27 µM
- Activity (MDA-MB-231 [10]): 6.48%
- remaining at 8 h, 1 mg/ml [11]: 97.4%
- Activity (MDA-MB-231 [12]): 54.9%
- IC50 (MV4-11): 0.11 µM

Structure (SMILES): COc1ccc(F)cc1-c1cc(Nc2cc(CN3CCN(C(=O)c4cc(Cc5n[nH]c(=O)c6ccccc56)ccc4F)CC3)ccn2)ncc1F
- IC50 [13]: 0.048 µM
- IC50 [14]: 0.031 µM

Structure (SMILES): COc1cc(F)ccc1-c1nc(Nc2cc(CN3CCN(C(=O)c4cc(Cc5n[nH]c(=O)c6ccccc56)ccc4F)CC3)ccn2)ncc1F
- IC50 [13]: 0.091 µM
- IC50 [14]: 2.35 µM

Structure (SMILES): O=C(c1cc(Cc2n[nH]c(=O)c3ccccc23)ccc1F)N1CCN(C(=O)C2CC2)CC1 [OLAPARIB]
- Activity (MDA-MB-231 [29]): 96.8%
- remaining at 8 h, 1 mg/ml [1]: 99.4%
- IC50 (MCF7): 195 µM
- remaining at 3 h [3]: 99.4%
- half-life at 1 mg/ml [4]: 1.86 h
- Activity (MDA-MB-231 [30]): 0.59%
- IC50 (HCT-116): 200 µM
- Activity (MDA-MB-231 [31]): 35.8%
- Activity (MDA-MB-231 [32]): 0.48%
- Activity (MDA-MB-231 [33]): 48.7%
- IC50 (MOLM-13): 43.1 µM
- IC50 (MDA-MB-231 [9]): > 50 µM
- remaining at 8 h, 1 mg/ml [11]: 100%
- Activity (MDA-MB-231 [34]): 2.13%
- IC50 (MV4-11): 15.2 µM
- Activity (MDA-MB-231 [35]): 14.1%

The remaining compounds from weak to strong by IC50 [13], led by results:

- IC50 [13]: 0.03 µM
- IC50 [14]: 0.031 µM
Structure (SMILES): COc1ccc(-c2cc(Nc3cc(CN4CCN(C(=O)c5cc(Cc6n[nH]c(=O)c7ccccc67)ccc5F)CC4)ccn3)ncc2F)c(OC)c1

- IC50 [13]: 0.016 µM
- IC50 [14]: 0.061 µM
Structure (SMILES): COc1cccc(F)c1-c1cc(Nc2cc(CN3CCN(C(=O)c4cc(Cc5n[nH]c(=O)c6ccccc56)ccc4F)CC3)ccn2)ncc1F

- IC50 (HeLa): 0.25 µM
- remaining at 8 h, 1 mg/ml [1]: 94.1%
- IC50 (MCF7): 0.67 µM
- remaining at 3 h [3]: 94.6%
- half-life at 1 mg/ml [4]: 2.44 h
- IC50 [13]: 0.006 µM
- IC50 (HCT-116): 0.13 µM
- IC50 [14]: 0.015 µM
- IC50 (MOLM-13): 0.69 µM
- IC50 (MDA-MB-231 [9]): 0.44 µM
- remaining at 8 h, 1 mg/ml [11]: 96.7%
- IC50 (MV4-11): 3.83 µM
Structure (SMILES): CCOc1cc(F)ccc1-c1cc(Nc2cc(CN3CCN(C(=O)c4cc(Cc5n[nH]c(=O)c6ccccc56)ccc4F)CC3)ccn2)ncn1
- Activity (MDA-MB-231 [15]): 1.64%
- Activity (MDA-MB-231 [16]): 8.01%
- Activity (MDA-MB-231 [17]): 27.9%
- Activity (MDA-MB-231 [18]): 25.3%
- Activity (MDA-MB-231 [19]): 0.81%
- Activity (MDA-MB-231 [20]): 2.67%
- Activity (MDA-MB-231 [2]): 31.1%
- Activity (MDA-MB-231 [21]): 14.8%
- Activity (MDA-MB-231 [5]): 82.8%
- Activity (MDA-MB-231 [6]): 7.54%
- Activity (MDA-MB-231 [22]): 29.1%
- Activity (MDA-MB-231 [23]): 1.07%
- Activity (MDA-MB-231 [24]): 40%
- Activity (MDA-MB-231 [7]): 36.4%
- Activity (MDA-MB-231 [8]): 1.78%
- Activity (MDA-MB-231 [10]): 7.87%
- Activity (MDA-MB-231 [25]): 45.2%
- Activity (MDA-MB-231 [26]): 94.9%
- Activity (MDA-MB-231 [12]): 34.8%
- Activity (MDA-MB-231 [27]): 76.1%
- Activity (MDA-MB-231 [28]): 33.1%
